Patent US7329686B2, “Substituted thiophene compounds” (AstraZeneca AB, priority 2002, dated 2008)
Structures can show the parent of a compound that is named as a salt.

Key:
[1] = target: T1, Nitric oxide synthase (Mus musculus, UniProt P29477); assay: Screen 1: nitric oxide synthase inhibition, 3H-L-arginine to 3H-L-citrulline conversion, lysate of induced J774A-1 cells; format: biochemical; conditions: enzyme from LPS/IFNg-induced murine macrophage cell line J774A-1; 1 hour at room temperature
T1 construct: endogenous in cells; host or cells: J774A-1 murine macrophage cell line, induced with LPS and IFN-gamma; crude lysate
Protocol: The activity of compounds of formula (I), or a pharmaceutically acceptable salt, enantiomer or racemate thereof, may be screened for nitric oxide synthase inhibiting activity by a procedure based on that of Förstermann et al., Eur. J. Pharm., 1992, 225, 161-165. Nitric oxide synthase converts ^3H-L-arginine into ^3H-L-citrulline which can be separated by cation exchange chromatography and quantified by liquid scintillation counting.
Enzyme is prepared, after induction, from the cultured murine macrophage cell line J774A-1 (obtained from the laboratories of the Imperial Cancer Research Fund). J774A-1 cells are cultured in Dulbeccos Modified Eagles Medium (DMEM) supplemented with 10% foetal bovine serum, 4 mM L-glutamine and antibiotics (100 units/ml penicillin G, […] streptomycin & […] amphotericin B). Cells are routinely grown in […] flasks containing 35 ml medium kept at 37° C. and in a humidified atmosphere containing 5% CO2. […]
Labelled L-citrulline is separated from labelled L-arginine using Dowex AG-50W. […] After allowing the samples to dry the L-citrulline is quantified by scintillation counting.
In a typical experiment basal activity is 300 dpm per 75 μl sample which is increased to 1900 dpm in the reagent controls. […] Compounds are tested at a range of concentrations and from the inhibitions obtained IC50 values are calculated. […]

[2] = target: T2, Recombinant human iNOS (Homo sapiens, UniProt P35228); assay: Screen 2: recombinant human NO synthase inhibition, L-[3H]citrulline formation; format: biochemical; conditions: recombinant human iNOS expressed in E. coli; 60 min pre-incubation with NADPH
T2 construct: made in house; host or cells: E. coli (lysate)
Protocol: Recombinant human NO synthases (iNOS, eNOS & nNOS) were expressed in E. coli and lysates were prepared in Herpes buffer (pH 7.4) containing co-factors (FAD, FMN, H4B), protease inhibitors, lysozyme and the detergent, CHAPS. These preparations were used, at suitable dilution, to assess inhibition of the various isoforms. Inhibition of NOS was determined by measuring the formation of L-[^3H]citrulline from L-[^3H]arginine using an adaptation of the method of Förstermann et al.^9 Enzyme assays were performed in the presence of 3 μM [^3H]arginine, 1 mM NADPH and other co-factors required to support NOS activity (FAD, FMN, H4B, calmodulin, Ca^2+). […] Incubations continued for a further 60 min before the assays were quenched and [^3H]citrulline separated from unreacted substrate by chromatography on Dowex-50W resin in a 96-well format.

[3] = target: T3, human form of induced nitric oxide synthase (Homo sapiens, UniProt P35228); assay: Screen 3: nitrite accumulation in cytokine-induced DLD-1 cells (Griess reagent); format: cell-based; conditions: DLD-1 human colorectal carcinoma cells, nitrite accumulation over 5 hours
T3 construct: Nitric oxide synthase was induced in cells by addition of medium containing human recombinant gamma-IFN; endogenous in cells; host or cells: DLD-1 human colorectal carcinoma cells (ECACC 90102540), induced with IFN-gamma, TNF-alpha, IL-6 and IL-1-beta
Protocol: The human colorectal carcinoma cell line, DLD-1 (obtained from the European Collection of Animal Cell Culture—cell line number 90102540) was routinely grown in RPMI 1640 supplemented with 10% (v/v) foetal bovine serum, and 2 mM L-glutamine, at 37° C. in 5% CO2. Nitric oxide synthase was induced in cells by addition of medium containing human recombinant gamma-IFN (1000 units/ml), TNF-alpha (200 U/ml), IL-6 (200 U/ml) and IL-1-beta (250 U/ml). After incubation for 18 hours at 37° C., the medium was removed and the cells washed with warm phosphate buffered saline. Cells were incubated for a further 5 hours at 37° C./5% CO2 in RPMI 1640 containing 100 μM L-arginine and 100 μM verapamil-HCl in the presence and absence of test compounds. Nitrite accumulation was determined by mixing an equal volume of culture media with Griess reagent (10 mg/ml sulphanilamide, 1 mg N-(1-naphthyl)ethylenediamine in 1 ml 2.5% (v/v) phosphoric acid). Inhibition in the presence of compounds was calculated relative to the nitrite levels produced by untreated cells. IC50 values were estimated from a semi-log plot of % inhibition versus concentration of compound.

- IC50 [1]: < 10 µM
- IC50 [2]: < 10 µM
- IC50 [3]: < 100 µM
SMILES: Cc1cc(S[C@H](CN)c2ccccc2)c(C#N)s1 [Example 1, 3-[[(1S)-2-Amino 1-phenylethyl]thio]-5-methyl-2-thiophenecarbonitrile oxalate]
